In US20250388597A1, “BIFUNCTIONAL PHOTOCROSSLINKING PROBES FOR COVALENT CAPTURE OF PROTEIN-NUCLEIC ACID COMPLEXES IN CELLS” (UNIVERSITY OF SOUTHERN CALIFORNIA, priority 2022, published 2025):
Entries after “also recorded” stand apart in the source; their conditions may differ.

Tests used:
[1] = biological target: T1, NFAT1/DNA complex (Homo sapiens, UniProt Q13469); test: In vitro photo-crosslinking of assembled NFAT1/DNA complex, denaturing SDS gel; format: biochemical
T1 construct: human NFAT1 protein (residue 399-676, NFAT1-DBD)
T1 sequence (Q13469 399-676): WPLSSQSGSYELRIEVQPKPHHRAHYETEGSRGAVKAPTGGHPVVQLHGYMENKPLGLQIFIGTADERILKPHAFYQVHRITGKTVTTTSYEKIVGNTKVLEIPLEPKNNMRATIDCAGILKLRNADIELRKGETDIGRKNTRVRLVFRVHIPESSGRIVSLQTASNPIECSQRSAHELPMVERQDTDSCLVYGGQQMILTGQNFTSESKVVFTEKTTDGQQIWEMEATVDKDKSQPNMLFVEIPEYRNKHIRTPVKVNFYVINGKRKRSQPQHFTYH
Procedure: The probe binding and UV crosslinking were carried out as described in FIG. 5G and FIG. 7. The crosslinked complexes (lane 3 and lane 6) were further treated with DTT (100 mM, heat 50 degree C. for 30 min). The reaction mixtures were run on SDS gel and visualized by FAM fluorescence for DNA (top) and by Coomassie blue stain for protein (bottom) as described in FIG. 7. FIG. 7 depicts denaturing SDS gel analysis of covalent capture of in vitro assembled MEF2/DNA and NFAT1/DNA complexes by the BFPX probe, SPB-AAD. […] The protein/DNA complexes are incubated at room temperature for 30 min, and treated with various combination of BFPX probe (SPB-AAD) and UV illumination as described in FIG. 5G. […] The reaction mixtures were added SDS loading dye (2% SDS), boil for 10 min, and run on SDS gel (Bio-Rad Any Kd gradient gel). The same gel was visualized by FAM fluorescence for DNA (top) and by Coomassie blue stain for protein (bottom). FIG. 8C depicts denaturing SDS gel analysis of covalent capture of in vitro assembled MEF2/DNA and NFAT1/DNA complexes by the BFPX probe, SPB-PEG3-AAD. […] The reaction mixtures were run on SDS gel and visualized by FAM fluorescence for DNA (top) and by Coomassie blue stain for protein (bottom) as described in FIG. 7. […] Typically protein and DNA are mixed to bind at room temperature for 30 min, followed by addition of BFPX probes for an additional 15 min and then UV illumination. In the case of FA treatment, the reaction time is 10 min at room temperature and then quenched by 250 mM glycine. […] The UV illumination (as indicated by a positive sign) was carried out using a LED Chip (21.4 mm×21.4 mm, 365-370 nm, 30 Watt, sample distance 2 cm, exposure time 2-15 min at 4 degree C., here the exposure time is 15 min). […] The small amount of single stranded DNA is due to incomplete annealing. The higher smearing bands are most likely non-specific protein complexes. Neither of these experimental imperfections affected the main conclusion of this experiment because the double stranded-DNA bands and the specific NFAT-DNA complex bands (the middle sharp bands) are well defined and can be monitored without the interference of the other bands. […] The gel was visualized by Cy5 fluorescence for DNA. FIG. 12E depicts further characterization of BFPX crosslinking of NFAT1/DNA complexes using different DNA substrates and staining techniques. Two unlabeled DNA substrates containing a core NFAT-binding site and different flanking bases and sequence lengths ([…] ID NO: 4), 21 mer, c2: [NT] ID NO: 5), 16 mer) were used to bind the NFAT1-DBD as described in FIG. 12C. […] The reactions were then analyzed by SDS PAGE under denaturing condition as described in FIG. 12D. Because the DNA is unlabeled, the gel was stained using either cyanine-based dye (SYBR Safe) or Coomassie Blue stain (CB). […] The different size of the NFAT-c1DNA complexes (lane 2) and NFAT-c2DNA complexes (lane 4) was resolved by loading reactions of lane 2 (2a, 2b and 2c) and lane 4 (4a, 4b and 4c) as triplicates side-by-side on the same gel (lower panel) using either SYBR and CB stain. FIG. 12F depicts time course of BFPX crosslinking of NFAT1/DNA complexes. […] The reactions at different time points were then analyzed on SDS gel as described in FIG. 12D. […] When the UV exposure time is longer than 5 min, a significant amount of crosslinked NFAT-DNA complex can be formed with UV illumination without SPB-AAD.

[2] = system: GM12878 cell lines; test: Crosslinking in suspension GM12878 cell lines, electrophoresis after sonication; format: cell-based; settings: compared to the no-probe or no-UV controls; FIG. 5F
From the text: For this, we tested the prototype BFPX probe 4AMT-LC-SDA in the suspension GM12878 cell lines.

[3] = biological target: T2, MEF2A/DNA complex (Homo sapiens, UniProt Q02078); test: In vitro photo-crosslinking of assembled MEF2/DNA complex, read on denaturing SDS/urea gel or agarose gel; format: biochemical; settings: for selectivity for DNA binding protein versus non-DNA binding protein BSA: BSA under the same condition; for formation of covalent MEF2/DNA crosslinked complex: probe + UV, denaturing gel
T2 construct: human MEF2A DBD (residues 2-95); made in house
T2 sequence (Q02078 2-95): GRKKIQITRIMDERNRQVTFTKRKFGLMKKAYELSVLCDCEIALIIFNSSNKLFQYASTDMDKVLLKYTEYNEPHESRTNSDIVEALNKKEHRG
From the text: In vitro assays have confirmed the success and the efficiency of the demo probe (AMT-LC-SDA) in crosslinking double strand DNA of various contents and DNA-binding protein human myocyte enhancer factor 2A (MEF2A) (1-95 aa) (FIG. 5C-FIG. 5E). The solid crosslinking is confirmed for the probe with UV photo crosslinking conditions by denaturing or digestive approaches such as running with 8.3 M urea gel, SDS gel, combined with sample with overnight digestion of proteinase K at 65 Celsius and denatured at high temperature of 95 Celsius with SDS loading dye. […] Under these harsh evaluation conditions, the protein got digested on the crosslinking complex thoroughly, yet the remaining crosslinked amino acids residuals still have made the DNA to be in a larger size and shifted clearly compared to other controls, which is indicated by the bold shaped arrow. Agarose gel was also used for its bigger pore size to estimate the crosslinking efficiency (UV 2 hrs), estimated by the amount of the left free DNA, our probe has reached around 30-60% efficiency (FIG. 5E), which is much higher than the UV-initiated protein DNA crosslinking without the use of a probe (10-20%) as reported in Nature Communications, volume 11, Article number: 3019 (2020). […] This further supports the idea of applying this probe for replacement of formaldehyde, it crosslinks the protein only within the proximity of nucleic acids, thereby largely reducing the random protein-protein crosslinking noise and helps to preserve the native state of protein epitopes.
The BFPX probe 4AMT-LC-SDA was synthesized with good yield by the NHS-amine chemistry using psoralen and diazirine derivatives (FIG. 5A, FIG. 5B). To test its photo crosslinking ability, human transcription factor MEF2A (the MADS-box/MEF2 domain) and double strand DNA containing a MEF2 binding site were used. We first used electrophoresis mobility shift assay (EMSA) to validate the activity of the purified recombinant MEF2A DNA-binding domain. After finding out the optimal protein to DNA ratio, the in vitro assembled MEF2/DNA complex was then subject to photocrosslinking in the presence or absence of the 4AMT-LC-SDA probe with or without UV illumination. Multiple other control experiments were carried out in parallel to test the specificity of photocrosslinking between the DNA and MEF2. Specifically, parameters such as protein/DNA amounts (1:[…]), ratio, UV time (10 m to 4 hrs), wavelength (320 to 360 nm), LV source (mercury long lamp, LED) and their distance to the reaction mixture have been optimized along the course. The MEF2 Protein and DNA were incubated first to mimic an in vivo binding mode and stoichiometry, and then the mixture was incubated with our 4AMT-LC-SDA probe to undergo UV illumination. The results were evaluated by running denaturing gels (SDS in FIG. 5D, or Urea in FIG. 5C) against the high temperature denatured reaction mixtures and checking the respective protein (silver stain) or DNA (FAM label) signals. To further rule out any other possible false positiveness during loading, proteinase K digestion was applied to all the samples including the negative controls with SDS at 65 degrees.

[4] = biological target: T3, DNA binding by NFAT1 (Homo sapiens, UniProt Q13469); test: Native EMSA of the effect on DNA binding by NFAT1; format: biochemical
T3 construct: human NFAT1 protein (residue 399-676, NFAT1-DBD)
T3 sequence (Q13469 399-676): T1 sequence (Q13469 399-676)
Procedure: All binding reactions contain 10 μM 27 mer dsDNA (5′6-FAM labeled) with a NFAT-binding site, and various combinations of NFAT1 protein (14 μM), FA (1% v/v), 4AMT-LC-SDA (20 μM), with or without UV illumination (365 nm, LED, 30 Watt, sample distance 2 cm, exposure time 15 min at 4 degree C.). 10 μl of the binding reaction is run on a 10% PAGE 0.5×TBE gel. The same gel was visualized by FAM fluorescence for DNA (top) and by Coomassie blue stain for protein (bottom). The higher smearing bands in lane 3, 8, 9, and 10 are most likely non-specific protein complexes often seen when an excessive amount of protein is used to ensure all DNA is bound.
The binding reactions were performed in a buffer of 20 mM Hepes pH 7.6, 150 mM NaCl, 1 mM DTT, 12% glycerol. Typically protein and DNA are mixed to bind at room temperature for 30 min, followed by addition of BFPX probes for an additional 15 min and then UV illumination. In the case of FA treatment, the reaction time is 10 min at room temperature and then quenched by 250 mM glycine. When included (as indicated by a positive sign), the binding reaction contains 10 μM 27 mer dsDNA (Cy5-labeled) with a NFAT-binding site (the antigen receptor response element 2, ARRE2, from the IL-2 promoter, 5′-Cy5-[sequence]-3′ (SEQ ID NO: 2), the complementary strand is not labeled), 24 μM of the DNA binding domain (DBD) of human NFAT1 protein (residue 399-676, NFAT1-DBD). The UV illumination (as indicated by a positive sign) was carried out using a LED Chip (21.4 mm×21.4 mm, 365-370 nm, 30 Watt, sample distance 2 cm, exposure time 2-15 min at 4 degree C., here the exposure time is 15 min). Half of the binding reaction (7.5 μl) was run on a 10% PAGE 0.5×TBE gel and visualized by Cy5 fluorescence on DNA. The small amount of single stranded DNA is due to incomplete annealing. The higher smearing bands are most likely non-specific protein complexes. Neither of these experimental imperfections affected the main conclusion of this experiment because the double stranded-DNA bands and the specific NFAT-DNA complex bands (the middle sharp bands) are well defined and can be monitored without the interference of the other bands.
The presence of both DNA and protein in the same shifted band can be checked by the FAM fluorescence signal (top) and Coomassie stain (bottom), respectively (free NFAT is positively charged and not observable under the EMSA condition).

Cc1oc2c(C)c3oc(=O)cc(C)c3cc2c1CNC(=O)CCCCCNC(=O)CCC1(C)N=N1 [4AMT-LC-SDA]
effect of DTT treatment on the crosslinked NFAT-DNA complex ([1]; 25 μM probe, DTT 100 mM, 50 degree C., 30 min, FIG. 5H): little effect | formation of covalent NFAT1/DNA crosslinked complex stable under denaturing SDS-PAGE ([1]; probe + UV 365 nm, 2% SDS, boil 10 min): highly efficient crosslinking; also recorded: crosslinked NFAT to its DNA substrate efficiently | crosslink effect in cells [2]: good crosslink effect | selectivity for DNA binding protein versus non-DNA binding protein BSA [3]: did not show any signs of forming crosslink with the DNA | selectivity for DNA binding protein versus non-DNA binding protein BSA ([3]; listed as AMT-LC-SDA): only MEF2A sample shows consumption of DNA substrate by crosslinking | photo crosslinking efficiency of the MEF2-DNA complex ([3]; agarose gel, comparison of band intensities): around 50% | crosslinking efficiency, estimated by the amount of the left free DNA ([3]; agarose gel, UV 2 hrs, dsDNA + MEF2A (1-95 aa)): 30-60% | formation of covalent MEF2/DNA crosslinked complex [3]: successful photo crosslink complex between protein and DNA; also recorded: highly efficient crosslinking | formation of covalent MEF2/DNA crosslinked complex ([3]; listed as AMT-LC-SDA): the crosslinking of protein and nucleic acids takes place | effect on the DNA binding by NFAT1 ([4]; FIG. 5G, FA 1% v/v, 4AMT-LC-SDA 20 μM with or without UV 365 nm): did not affect | effect on NFAT1 protein ([4]; with and without UV365, data not shown): did not affect NFAT1 protein
